Reference: PMC7615677 (Science translational medicine, 2023)
Read-outs that look alike come from different tables or passages of the source.

Assays:
CYP2C19 = target: T1, CYP2C19 (Homo sapiens, UniProt P33261); assay: Cytochrome P450 inhibition, human liver microsomes; assay type: in vitro ADME
T1 construct: incubation of isoform-specific substrates with human liver microsomes; from tissue; host or cells: human liver microsomes
Procedure: (§1) Direct CYP inhibition studies were conducted using conditions described previously ([43]) following incubation of isoform-specific substrates with human liver microsomes. The formation of known metabolites mediated by a specific CYP isoform was monitored. CYP isoform-specific pathways (and positive control inhibitors) included CYP1A2: phenacetin O-deethylation (furafylline), CYP2B6: bupropion hydroxylation (PPP), CYP2C8: amodiaquine deethylation (quercetin) CYP2C9: tolbutamide methylhydroxylation (sulfaphenazole), CYP2C19: (S)-mephenytoin 4’-hydroxylation (ticlopidine), CYP2D6: dextromethorphan O-demethylation (quinidine), and CYP3A: midazolam 1’-hydroxylation and testosterone 6β-hydroxylation (ketoconazole). […] The organic solvent content was maintained at less than 1% (v/v). NADPH was added to initiate the reaction which was then quenched by the addition of acetonitrile containing internal standard at specified times. Concentrations of the isoform-specific metabolites were quantified by LC-MS (Waters Xevo TQD triple quadrupole MS coupled to a Waters Acquity UPLC system) relative to calibration standards prepared in pre-quenched microsomal matrix.
(§2) Time dependent inhibition was assessed using an “IC50 shift” method based on a previous publication ([44]). […] A shift in the IC50 in the presence of NADPH (relative to the absence) was used as an indication of time dependent inhibition. Reference direct and time-dependent inhibitors were included in the assays.

CYP1A2 = target: T2, CYP1A2 (Homo sapiens, UniProt P05177); assay: Cytochrome P450 inhibition, human liver microsomes; assay type: in vitro ADME
T2 construct: incubation of isoform-specific substrates with human liver microsomes; from tissue; host or cells: human liver microsomes
T2 sequence (P05177 1-516): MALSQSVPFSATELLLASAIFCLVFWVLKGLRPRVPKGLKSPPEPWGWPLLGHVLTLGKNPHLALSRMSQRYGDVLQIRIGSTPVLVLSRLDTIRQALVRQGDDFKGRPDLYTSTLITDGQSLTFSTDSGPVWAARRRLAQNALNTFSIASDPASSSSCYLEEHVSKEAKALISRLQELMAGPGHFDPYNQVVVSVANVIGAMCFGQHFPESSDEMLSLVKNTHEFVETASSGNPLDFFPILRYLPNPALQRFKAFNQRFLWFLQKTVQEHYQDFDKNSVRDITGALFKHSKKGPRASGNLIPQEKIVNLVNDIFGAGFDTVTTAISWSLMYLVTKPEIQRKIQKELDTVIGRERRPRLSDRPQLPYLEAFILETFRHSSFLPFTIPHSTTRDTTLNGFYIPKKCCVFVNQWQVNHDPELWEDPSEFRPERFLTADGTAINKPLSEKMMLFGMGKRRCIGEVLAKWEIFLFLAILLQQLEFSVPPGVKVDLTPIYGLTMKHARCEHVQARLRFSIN
Procedure: as §1, §2

[1] = Compartmental PK modelling and repeat-dose simulation; design: species or system hamsters
Procedure: To support pharmacokinetic/pharmacodynamic (PKPD) analysis, data in mice and hamsters were also analyzed by compartmental modeling using Phoenix WinNonlin (version 8.2; Certara, Princeton, NJ). For each dose level, an extravascular dosing, single compartment disposition model was fit to the combined Day 1/Day 5 repeat dose plasma data. The model was parameterized with a single volume term (V/F), and with first order absorption (K01) and elimination (K10) rate constants. Initial values for the parameter estimates were obtained by fitting of the model to the Day 1 data at the lowest dose level only, and the same initial values were used across the dose range. Experimental data used in model fitting were the mean concentration-time profiles and the average dose administered to each group. The weighting scheme (1/Y2 for mouse and 1/Y for hamster) was selected based on goodness of fit of the peak region of the experimental profiles. Parameter estimates obtained through fitting were used to simulate full repeat-dose plasma concentration-time profiles with both once-daily and twice-daily (dosing at […]) administration at each dose level and treatment duration used in the efficacy studies.

[2] = with NADPH preincubation, read-out: Time-dependent inhibition IC50
[3] = without NADPH preincubation, read-out: Time-dependent inhibition IC50
[4] = hamster, plasma, po, Hamsters, 12.5 mg/kg, fitted
[5] = hamster, plasma, po, Hamsters, 25 mg/kg, fitted
[6] = hamster, plasma, po, Hamsters, 50 mg/kg, fitted
[7] = hamsters, 3.125 mg/kg bid, 5 days, simulated
[8] = hamsters, 12.5 mg/kg bid, 5 days, simulated
[9] = hamsters, 12.5 mg/kg qd, 5 days, simulated
[10] = hamsters, 25 mg/kg qd, 5 days, simulated
[11] = hamsters, 50 mg/kg qd, 5 days, simulated

T1 sequence (P33261 whole entry, canonical isoform): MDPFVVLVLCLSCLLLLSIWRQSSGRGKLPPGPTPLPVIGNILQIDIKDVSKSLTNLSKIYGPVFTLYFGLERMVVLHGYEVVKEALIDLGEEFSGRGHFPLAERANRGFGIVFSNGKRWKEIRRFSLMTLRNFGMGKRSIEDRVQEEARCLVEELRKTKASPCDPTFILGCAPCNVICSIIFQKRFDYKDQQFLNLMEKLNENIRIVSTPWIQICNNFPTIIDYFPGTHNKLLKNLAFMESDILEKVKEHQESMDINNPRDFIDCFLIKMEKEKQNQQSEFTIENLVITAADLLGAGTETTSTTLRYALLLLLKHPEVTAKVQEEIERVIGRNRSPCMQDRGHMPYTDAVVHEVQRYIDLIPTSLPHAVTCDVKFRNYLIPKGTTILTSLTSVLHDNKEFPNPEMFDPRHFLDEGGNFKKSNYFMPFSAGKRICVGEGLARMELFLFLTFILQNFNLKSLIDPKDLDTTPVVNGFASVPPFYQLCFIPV

Cc1[nH]c2nc(N)nc(C)c2c1-c1ccc(C#N)c2c1OCO2 [DNDI-6174]
IC50 (CYP2C19; CYP2C19, read-out: Direct inhibition IC50): 19 µM | IC50 (CYP2C19; [2]): 7.4 µM | IC50 (CYP2C19; [3]): 13.6 µM | IC50 (CYP1A2; CYP1A2, read-out: Direct inhibition IC50): 5.1 µM | IC50 (CYP1A2; [2]): 1 µM | IC50 (CYP1A2; [3]): 3.4 µM | K01 ([1]; Hamsters, 12.5 mg/kg, fitted): 0.321 h⁻¹ | K10 ([1]; Hamsters, 12.5 mg/kg, fitted): 0.336 h⁻¹ | V/F ([1]; Hamsters, 12.5 mg/kg, fitted): 1.57 L/kg | K01 ([1]; Hamsters, 25 mg/kg, fitted): 0.298 h⁻¹ | K10 ([1]; Hamsters, 25 mg/kg, fitted): 0.295 h⁻¹ | V/F ([1]; Hamsters, 25 mg/kg, fitted): 1.75 L/kg | K01 ([1]; Hamsters, 50 mg/kg, fitted): 0.660 h⁻¹ | K10 ([1]; Hamsters, 50 mg/kg, fitted): 0.184 h⁻¹ | V/F ([1]; Hamsters, 50 mg/kg, fitted): 1.83 L/kg | Cmax ([1]; hamster, plasma, po, 3.125 mg/kg, hamsters, 3.125 mg/kg bid, 5 days, simulated): 341 ng/mL | Cmax ([1]; hamster, plasma, po, 12.5 mg/kg, Hamsters, fitted): 2850 ng/mL | Cmax ([1]; hamster, plasma, po, 12.5 mg/kg, hamsters, 12.5 mg/kg bid, 5 days, simulated): 3690 ng/mL | AUC ([1]; hamster, plasma, po, 12.5 mg/kg, hamsters, 12.5 mg/kg bid, 5 days, simulated, read-out: AUC24 ss): 47600 ng·h/mL | AUC ([1]; hamster, plasma, po, 12.5 mg/kg, hamsters, 12.5 mg/kg bid, 5 days, simulated, read-out: Cum AUC): 238000 ng·h/mL | Cmax ([1]; hamster, plasma, po, 12.5 mg/kg, hamsters, 12.5 mg/kg qd, 5 days, simulated): 2880 ng/mL | AUC ([1]; hamster, plasma, po, 12.5 mg/kg, hamsters, 12.5 mg/kg qd, 5 days, simulated, read-out: AUC24 ss): 23800 ng·h/mL | AUC ([1]; hamster, plasma, po, 12.5 mg/kg, hamsters, 12.5 mg/kg qd, 5 days, simulated, read-out: Cum AUC): 119000 ng·h/mL | Cmax ([1]; hamster, plasma, po, 25 mg/kg, Hamsters, fitted): 5280 ng/mL | Cmax at 5 days ([1]; hamster, plasma, po, 25 mg/kg, hamsters, 25 mg/kg qd, 5 days, simulated): 5330 ng/mL | AUC ([1]; hamster, plasma, po, 25 mg/kg, hamsters, 25 mg/kg qd, 5 days, simulated, read-out: AUC24 ss): 48600 ng·h/mL | AUC ([1]; hamster, plasma, po, 25 mg/kg, hamsters, 25 mg/kg qd, 5 days, simulated, read-out: Cum AUC): 243000 ng·h/mL | Cmax ([1]; hamster, plasma, po, 50 mg/kg, Hamsters, fitted): 15600 ng/mL | Cmax ([1]; hamster, plasma, po, 50 mg/kg, hamsters, 50 mg/kg qd, 5 days, simulated): 17000 ng/mL | AUC ([1]; hamster, plasma, po, 50 mg/kg, hamsters, 50 mg/kg qd, 5 days, simulated, read-out: AUC24 ss): 148000 ng·h/mL | AUC at 5 days ([1]; hamster, plasma, po, 50 mg/kg, hamsters, 50 mg/kg qd, 5 days, simulated, read-out: Cum AUC): 742000 ng·h/mL | AUC(0-inf) [1, 4]: 23600 ng·h/mL | CL/F [1, 4]: 8.75 mL/min/kg | AUC(0-inf) [1, 5]: 48400 ng·h/mL | CL/F [1, 5]: 8.58 mL/min/kg | AUC(0-inf) [1, 6]: 140000 ng·h/mL | CL/F [1, 6]: 5.62 mL/min/kg | Cmax (unbound) [1, 7]: 31 ng/mL | Cmin [1, 7]: 13 ng/mL | Cmin (unbound) [1, 7]: 1 ng/mL | AUC24 ss (unbound) [1, 8]: 4280 ng·h/mL | Cav ss [1, 8]: 1980 ng/mL | Cav ss (unbound) [1, 8]: 178 ng/mL | Cmax (unbound) [1, 8]: 332 ng/mL | Cmin [1, 8]: 238 ng/mL | Cmin (unbound) [1, 8]: 21 ng/mL | Cum AUC (unbound) [1, 8]: 21400 ng·h/mL | AUC24 ss (unbound) [1, 9]: 2140 ng·h/mL | Cav ss [1, 9]: 991 ng/mL | Cav ss (unbound) [1, 9]: 89 ng/mL | Cmax (unbound) [1, 9]: 259 ng/mL | Cmin [1, 9]: 23 ng/mL | Cmin (unbound) [1, 9]: 2 ng/mL | Cum AUC (unbound) [1, 9]: 10700 ng·h/mL | AUC24 ss (unbound) [1, 10]: 4370 ng·h/mL | Cav ss [1, 10]: 2020 ng/mL | Cav ss (unbound) [1, 10]: 182 ng/mL | Cmax (unbound) [1, 10]: 480 ng/mL | Cmin [1, 10]: 83 ng/mL | Cmin (unbound) [1, 10]: 7 ng/mL | Cum AUC (unbound) [1, 10]: 21900 ng·h/mL | AUC24 ss (unbound) [1, 11]: 13400 ng·h/mL | Cav ss [1, 11]: 6190 ng/mL | Cav ss (unbound) [1, 11]: 557 ng/mL | Cmax (unbound) [1, 11]: 1530 ng/mL | Cmin [1, 11]: 463 ng/mL | Cmin (unbound) [1, 11]: 42 ng/mL | Cum AUC (unbound) [1, 11]: 66800 ng·h/mL
